Measurements: paper PMC4839570, “Novel Anthra[1,2-c][1,2,5]Thiadiazole-6,11-Diones as Promising Anticancer Lead Compounds: Biological Evaluation, Characterization & Molecular Targets Determination” (PLoS ONE, 2016)
Read-outs that look alike come from different tables or passages of the source.

Key:
DMS273 = assay: JFCR-39 cytotoxicity screen; assay type: cell-based
ST-4 = assay: JFCR-39 cytotoxicity screen; assay type: cell-based
786-0 = assay: NCI-60 cytotoxicity screen; assay type: cell-based
NCI-H460 = assay: JFCR-39 cytotoxicity screen; assay type: cell-based
HCT-15 = assay: NCI-60 cytotoxicity screen; assay type: cell-based
[1] = tested on: JFCR 39 human cancer cell lines; assay: JFCR-39 screen, means, ranges and selectivity over panels; assay type: cell-based; details: for GI50: Homo sapiens
Protocol: Both NSC745885 and NSC757963 satisfied the pre-determined threshold inhibition criteria of the NCI-60 One-Dose Screening, so they were tested against the panels of 60 cancer cell lines of NCI (NCI-60) and 39 cancer cell lines of JFCR (JFCR-39), each cell line was tested at five small doses of our compounds. Results are expressed as the 50% growth inhibition concentration (GI50), the 50% lethal concentration (LC50) and the total growth inhibition (TGI), compared to the values of untreated control cells.
To characterize the selectivity of NSC745885 and NSC757963 further among the different types of cancer, we determined their selectivity ratios towards each cell line subpanel used in the cytotoxicity experiments. […] The promising activity of this compound is evident from the small mean GI50 values. […] The strongest activity was towards the leukemia subpanel and the least one was towards the colon cancer subpanel. […] The strongest activity was towards the melanoma subpanel and the least one was towards the colon cancer subpanel.
All cell lines were published before.

SK-OV-3 [2] = assay: JFCR-39 cytotoxicity screen; assay type: cell-based
SF-268 = assay: NCI-60 cytotoxicity screen; assay type: cell-based
OVCAR-8 = assay: NCI-60 cytotoxicity screen; assay type: cell-based
OVCAR-3 [3] = details: five-dose
EKVX = assay: NCI-60 cytotoxicity screen; assay type: cell-based
PC-3 = assay: NCI-60 cytotoxicity screen; assay type: cell-based
OVCAR-3 [4] = details: JFCR
MKN1 = assay: JFCR-39 cytotoxicity screen; assay type: cell-based
HOP-92 = assay: NCI-60 cytotoxicity screen; assay type: cell-based
SW-620 = assay: NCI-60 cytotoxicity screen; assay type: cell-based
NCI/ADR-RES = assay: NCI-60 cytotoxicity screen; assay type: cell-based
LOX-IMVI = assay: JFCR-39 cytotoxicity screen; assay type: cell-based
SK-OV-3 [5] = assay: NCI-60 cytotoxicity screen; assay type: cell-based
NCI-H522 = assay: NCI-60 cytotoxicity screen; assay type: cell-based
SF-295 = assay: JFCR-39 cytotoxicity screen; assay type: cell-based
HOP-62 = assay: NCI-60 cytotoxicity screen; assay type: cell-based
KM12 = assay: NCI-60 cytotoxicity screen; assay type: cell-based
HT29 = assay: NCI-60 cytotoxicity screen; assay type: cell-based
A498 = assay: NCI-60 cytotoxicity screen; assay type: cell-based
[6] = Homo sapiens, read-out: LC50 (the source's name)
[7] = Homo sapiens, Fig 7, read-out: mean log10 of the GI50 values (converted)
[8] = Homo sapiens, five-dose, read-out: GI50
[9] = Homo sapiens, five-dose, read-out: LC50 (the source's name)

O=C1c2ccccc2C(=O)c2c1ccc1nsnc21 [NSC745885, anthra[1,2-c][1,2,5]thiadiazole-6,11-dione]
TGI (DMS273): 3.8 µM
GI50 (DMS273; Homo sapiens, DMS-273): 2000 nM
CC50 (DMS273; Homo sapiens, DMS-273, read-out: LC50 (the source's name)): 7 µM
TGI (ST-4): 4.0 µM
GI50 (ST-4; Homo sapiens): 2000 nM
CC50 (ST-4; [6]): 8 µM
TGI (786-0; 786–0, five-dose): 19.3 µM
GI50 (786-0; Homo sapiens, 786-0, Fig 7, read-out: mean log10 of the GI50 values (converted)): 4.9 µM
GI50 (786-0; Homo sapiens, 786–0, five-dose, read-out: GI50): 6.17 µM
CC50 (786-0; Homo sapiens, 786–0, five-dose, read-out: LC50 (the source's name)): 50.4 µM
TGI (NCI-H460): 13.0 µM
GI50 (NCI-H460; Homo sapiens): 3.4 µM
CC50 (NCI-H460; [6]): 67 µM
GI50 (HCT-15; [7]): 2040 nM
GI50 (HCT-15; [8]): 1710 nM
CC50 (HCT-15; [9]): 8.12 µM
TGI (HCT-15; five-dose): 3.72 µM
selectivity ratios of the JFCR subpanels (for NSC745885 except melanoma) [1]: less than 3
GI50 ([1]; JFCR Breast Cancer, read-out: Mean GI50 of subpanel): 1660 nM
GI50 ([1]; JFCR CNS Cancer, read-out: Mean GI50 of subpanel): 1870 nM
GI50 ([1]; JFCR Colon Cancer, read-out: Mean GI50 of subpanel): 5360 nM
GI50 ([1]; JFCR Lung Cancer, read-out: Mean GI50 of subpanel): 4130 nM
GI50 ([1]; JFCR Melanoma, read-out: Mean GI50 of subpanel): 860 nM
GI50 ([1]; JFCR Ovarian Cancer, read-out: Mean GI50 of subpanel): 1630 nM
GI50 ([1]; JFCR Prostate Cancer, read-out: Mean GI50 of subpanel): 1650 nM
GI50 ([1]; JFCR Renal Cancer, read-out: Mean GI50 of subpanel): 2100 nM
GI50 ([1]; JFCR Stomach Cancer, read-out: Mean GI50 of subpanel): 1710 nM
GI50 ([1]; all JFCR subpanels, read-out: mean GI50 values of the JFCR subpanels, range): 860 to 5360 nM
GI50 ([1]; equivalent to MG-MID, read-out: Mean GI50 of all JFCR-39 cell line panels): 2620 nM
GI50 ([1]; five-dose, read-out: JFCR-39 GI50 values, range over cell lines): 470 to 19000 nM
Selectivity ratio ([1]; JFCR Breast Cancer): 1.58
Selectivity ratio ([1]; JFCR CNS Cancer): 1.4
Selectivity ratio ([1]; JFCR Colon Cancer): 0.49
Selectivity ratio ([1]; JFCR Lung Cancer): 0.63
Selectivity ratio ([1]; JFCR Melanoma): 3.04
Selectivity ratio ([1]; JFCR Ovarian Cancer): 1.6
Selectivity ratio ([1]; JFCR Prostate Cancer): 1.59
Selectivity ratio ([1]; JFCR Renal Cancer): 1.25
Selectivity ratio ([1]; JFCR Stomach Cancer): 1.53
TGI (SK-OV-3 [2]): 8.3 µM
GI50 (SK-OV-3 [2]; Homo sapiens): 2700 nM
CC50 (SK-OV-3 [2]; [6]): 29 µM
GI50 (SF-268; [7]): 2750 nM
GI50 (SF-268; [8]): 2170 nM
CC50 (SF-268; [9]): 27.7 µM
TGI (SF-268; five-dose): 5.77 µM
GI50 (OVCAR-8; [7]): 1200 nM
GI50 (OVCAR-8; [8]): 1660 nM
CC50 (OVCAR-8; [9]): 59.8 µM
TGI (OVCAR-8; five-dose): 4.68 µM
TGI (OVCAR-3 [3]): 2.46 µM
GI50 (EKVX; [7]): 1860 nM
GI50 (EKVX; [8]): 1550 nM
CC50 (EKVX; [9]): 7.66 µM
TGI (EKVX; five-dose): 3.45 µM
GI50 (PC-3; [7]): 3.16 µM
GI50 (PC-3; [8]): 3.23 µM
CC50 (PC-3; [9]): > 100 µM
TGI (PC-3; five-dose): >100 µM
TGI (OVCAR-3 [4]): 2.0 µM
TGI (MKN1): 1.5 µM
GI50 (MKN1; Homo sapiens, MKN-1): 470 nM
CC50 (MKN1; Homo sapiens, MKN-1, read-out: LC50 (the source's name)): 4.3 µM
GI50 (HOP-92; [7]): 2690 nM
GI50 (HOP-92; [8]): 2520 nM
CC50 (HOP-92; [9]): > 100 µM
TGI (HOP-92; five-dose): 6.64 µM
GI50 (SW-620; [7]): 3890 nM
GI50 (SW-620; [8]): 1790 nM
CC50 (SW-620; [9]): 6.84 µM
TGI (SW-620; five-dose): 3.50 µM
GI50 (NCI/ADR-RES; [7]): 891 nM
GI50 (NCI/ADR-RES; [8]): 1860 nM
CC50 (NCI/ADR-RES; [9]): > 100 µM
TGI (NCI/ADR-RES; five-dose): 12.6 µM
TGI (LOX-IMVI): 4.2 µM
GI50 (LOX-IMVI; Homo sapiens): 860 nM
CC50 (LOX-IMVI; [6]): > 100 µM
GI50 (SK-OV-3 [5]; [7]): 4.17 µM
GI50 (SK-OV-3 [5]; [8]): 7.71 µM
CC50 (SK-OV-3 [5]; [9]): 53.4 µM
TGI (SK-OV-3 [5]; five-dose): 22.5 µM
GI50 (NCI-H522; [7]): 2240 nM
GI50 (NCI-H522; [8]): 1660 nM
CC50 (NCI-H522; [9]): 9.31 µM
TGI (NCI-H522; five-dose): 3.93 µM
TGI (SF-295): 3.3 µM
GI50 (SF-295; Homo sapiens): 1800 nM
CC50 (SF-295; [6]): 5.9 µM
GI50 (HOP-62; [7]): 2140 nM
GI50 (HOP-62; [8]): 1280 nM
CC50 (HOP-62; [9]): 8.53 µM
inhibition at 10 µM (HOP-62; Homo sapiens, single dose 10 μM, read-out: growth inhibition): 100%
TGI (HOP-62; five-dose): 3.31 µM
GI50 (KM12; [7]): 4.68 µM
GI50 (KM12; [8]): 1.96 µM
CC50 (KM12; [9]): 59.7 µM
TGI (KM12; five-dose): 5.54 µM
GI50 (HT29; Homo sapiens, HT-29, Fig 7, read-out: mean log10 of the GI50 values (converted)): 6.03 µM
GI50 (HT29; Homo sapiens, HT-29, five-dose, read-out: GI50): 13.4 µM
CC50 (HT29; Homo sapiens, HT-29, five-dose, read-out: LC50 (the source's name)): > 100 µM
TGI (HT29; five-dose): 50.4 µM
GI50 (A498; [7]): 35.5 µM
GI50 (A498; [8]): 12.4 µM
CC50 (A498; [9]): 52 µM
TGI (A498; five-dose): 25.4 µM
